Consider four compounds from patent US12116388B2, “Amylin receptor agonists” (Novo Nordisk A/S, priority 2022, dated 2024).

The nature of data set [1]: Oral pharmacokinetic profiles in Beagle dogs (SNAC tablets). It counts as in vivo. Particulars: oral tablet: 3 mg compound, 300 mg SNAC, 7.7 mg magnesium stearate. The procedure: To be able to evaluate oral exposure following tablet dosing, tablet compositions comprising the test substance and SNAC (sodium N-(8-(2-hydroxybenzoyl)amino)caprylate) were prepared by mixing test substance with roller compacted SNAC and magnesium stearate as, e.g., described in WO 2019/149880.
This assay was performed to measure the oral bioavailability of a compound. The assay determined the exposure of test compound following oral administration in Beagle dogs as described by relevant pharmacokinetic parameters and plasma concentration curves.
Preparation of tablets for oral administration: tablets containing test compound used for the assay described herein were immediate release SNAC-based tablets. The test compound was spray-dried as neutral sodium salt (pH 7-8). Dry granulation was carried out by roller compaction on a Gerteis MINI-PACTOR. Tablets containing 3 mg test compound, 300 mg sodium N-(8-(2-hydroxybenzoyl)amino)caprylate (SNAC) and 7.7 mg magnesium stearate were produced on at Kilian Style One using 7.2×12 mm punches.
Determination of the absorption following oral administration: eight (8) male Beagle dogs, 1 to 8 years of age and weighing approximately 10-15 kg at the start of the studies, were used. The dogs were group-housed in pens (12 hours light:12 hours dark), and fed individually and restrictedly once daily with Royal Canin Medium Adult dog (Royal Canin Products, China Branch, or Brogaarden A/S, Denmark). Exercise and group social were permitted daily, whenever possible. The dogs were used for repeated pharmacokinetic studies with a suitable wash-out period between successive dosing. An appropriate acclimatisation period was given prior to initiation of the first pharmacokinetic study. All handling, dosing and blood sampling of the animals were performed by trained and skilled staff. Before the studies the dogs were fasted overnight and from 0 to 4 h after dosing. Besides, the dogs were restricted to water 1 hour before dosing until 4 hours after dosing, but otherwise had ad libitum access to water during the whole period.
Tablets containing the test compound were administered in the following manner: 10 min prior to tablet administration the dogs were dosed subcutaneously with approximately 3.2 nmol/kg of glucagon. The tablets were placed in the back of the mouth of the dog to prevent chewing. The mouth was then closed, and 10 mL of tap water was given by a syringe to facilitate swallowing of the tablet. Blood was sampled at predefined time points for up till 288 hours after dosing to adequately cover the full plasma concentration-time absorption profile of the compound. For each blood sampling time point approximately 1.2 mL of whole blood was collected in a 1.5 mL EDTA coated tube, and the tube was gently turned to allowing mixing of the sample with the EDTA. Then, the blood samples were kept on ice until centrifugation (4 min, 4° C., 4000 rpm). Plasma was pipetted into Micronic tubes on dry ice and kept at −20° C. until analysis. Blood samples were taken as appropriate, for example from a venflon in the cephalic vein in the front leg for the first 2 hours and then with syringe from the jugular vein for the rest of the time points (the first few drops were allowed to drain from the venflon to avoid heparin saline from the venflon in the sample).
Bioanalysis was carried out as follows: plasma concentrations of test compound were assayed by plasma protein precipitation and analysed by liquid chromatography-mass spectrometry (LC-MS). Calibrators were prepared by spiking blank dog plasma with analytes to reach the final concentrations in the range typically from 0.5 to 200 nM. Calibrators, plasma blanks or study samples were prepared for LC-MS by protein precipitation by adding 3 volumes of ethanol followed by centrifugation at 4000 rpm at 4° C. for 1 h. The supernatant was diluted with 2 volumes of Milli-Q water containing 0.1% formic acid before injection on the LC-MS system. […]

The target of data set [2] is T1, human calcitonin receptor (hCTR) (Homo sapiens, UniProt P30988).
T1 construct: host or cells: BHK (Baby Hamster Kidney), Hollex-1 cell line
T1 sequence (P30988 25-474): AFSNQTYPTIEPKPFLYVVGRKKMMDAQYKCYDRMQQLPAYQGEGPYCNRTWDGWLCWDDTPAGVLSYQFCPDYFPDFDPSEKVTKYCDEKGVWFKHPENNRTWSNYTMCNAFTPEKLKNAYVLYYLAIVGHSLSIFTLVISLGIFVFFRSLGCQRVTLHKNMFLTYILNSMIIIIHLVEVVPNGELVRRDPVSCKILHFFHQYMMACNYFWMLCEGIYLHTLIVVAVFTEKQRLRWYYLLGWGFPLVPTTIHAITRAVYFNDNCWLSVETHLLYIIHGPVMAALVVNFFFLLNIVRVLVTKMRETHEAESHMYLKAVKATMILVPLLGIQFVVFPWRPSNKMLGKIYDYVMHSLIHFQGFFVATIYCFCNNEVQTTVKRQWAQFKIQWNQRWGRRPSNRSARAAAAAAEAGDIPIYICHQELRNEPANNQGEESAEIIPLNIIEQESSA
The experiment in a line: Human calcitonin receptor (hCTR) in vitro potency assay, CRE-luciferase reporter in BHK cells. It counts as cell-based. Particulars: BHK hCTR/CRE-Luc cells, 3 hours incubation, assay buffer with 1% ovalbumin; read-out: hCalcR potency, EC50. In outline: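 BHK cells stably co-expressing human calcitonin receptor and a CRE-luciferase reporter, seeded the day before, were exposed to 7-fold serial dilutions (7 concentrations, often starting near 10 nM) in DMEM/HEPES/1% ovalbumin buffer for 3 h at 37 °C. Luminescence was then read after SteadyLite Plus addition.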

Data set [3] deals with T2, human amylin receptor (hAMYR3) (Homo sapiens, UniProt O60896+P30988).
T2 construct: host or cells: BHK (Baby Hamster Kidney), Hollex-1 cell line further transfected with RAMP3
The experiment in a line: Human amylin receptor (hAMYR3) in vitro potency assay, CRE-luciferase reporter in BHK cells. It is filed as cell-based. The conditions noted are these: BHK hAMYR3/CRE-Luc cells, 3 hours incubation, assay buffer with 1% ovalbumin. The procedure, abridged: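 BHK cells stably expressing human calcitonin receptor (a) plus RAMP3 and a CRE-luciferase reporter, seeded overnight, then exposed to 7-point 7-fold dilutions (often from ~10 nM) in DMEM/HEPES buffer with 1% ovalbumin for 3 h at 37 °C. Luciferase luminescence read after SteadyLite Plus addition.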

pEC50: −log10 of the molar value. Starred links: 1 amine or outer side, 2 acyl side, 3 side chain; linkers in the order of their positions; H or OH if unused. Positions of bridges follow the written chain, without caps; N, C: chain ends. Residues, ends and D or L forms follow the SMILES beside them. *: point of attachment. C20 diacid = O=C(O)CCCCCCCCCCCCCCCCCCC(=O)*; C18 diacid = O=C(O)CCCCCCCCCCCCCCCCC(=O)*; γGlu = O=C(O)[C@H](CCC(=O)[*:2])N[*:1]

T2 sequence (O60896 24-148, one chain of several): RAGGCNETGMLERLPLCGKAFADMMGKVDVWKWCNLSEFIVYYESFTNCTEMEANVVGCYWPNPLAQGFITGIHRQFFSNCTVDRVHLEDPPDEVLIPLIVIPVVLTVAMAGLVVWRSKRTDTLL

On to `CC[C@H](C)[C@H](NC(=O)[C@@H]1CCCN1C(=O)CNC(=O)[C@H](Cc1ccccc1)NC(=O)[C@H](CC(N)=O)NC(=O)[C@H](CC(N)=O)NC(=O)[C@H](CO)NC(=O)[C@H](CO)NC(=O)[C@H](Cc1c[nH]cn1)NC(=O)[C@H](CCCNC(=N)N)NC(=O)[C@H](CC(C)C)NC(=O)[C@H](Cc1ccccc1)NC(=O)[C@H](CCC(=O)O)NC(=O)[C@H](C)NC(=O)[C@H](CC(C)C)NC(=O)[C@H](CCCNC(=N)N)NC(=O)[C@H](CCC(N)=O)NC(=O)[C@@H](NC(=O)[C@H](C)NC(=O)[C@@H]1CSSC[C@H](NC(=O)[C@H](CCCCN)NC(=O)CC[C@H](NC(=O)CCCCCCCCCCCCCCCCCCC(=O)O)C(=O)O)C(=O)N[C@@H](CC(N)=O)C(=O)N[C@@H]([C@@H](C)O)C(=O)N[C@@H](C)C(=O)N[C@@H]([C@@H](C)O)C(=O)N1)[C@@H](C)O)C(=O)N[C@@H](CC(C)C)C(=O)N1CCC[C@H]1C(=O)N1CCC[C@H]1C(=O)N[C@H](C(=O)N[C@@H](CCC(N)=O)C(=O)N[C@H](C(=O)NCC(=O)N[C@@H](CO)C(=O)N[C@@H](CC(N)=O)C(=O)N[C@H](C(=O)N1CCC[C@H]1C(N)=O)[C@@H](C)O)C(C)C)[C@@H](C)O` [Compound 1, N^1Alpha-[(4S)-4-carboxy-4-(19-carboxynonadecanoylamino)butanoyl]-[Glu14,Arg17,Pro25,Pro28,Pro29,Gln31,Pro37]-human amylin, reference compound] ({C20 diacid-γGlu}-KCNTATCATQRLAEFLRHSSNNFGPILPPTQVGSNTP-NH2; disulfide 2-7), for which, in data set [1], the “Cmax/D” value is on record as 0.057 kg/L.

Consider `CC[C@H](C)[C@H](NC(=O)[C@@H]1CCCN1C(=O)CNC(=O)[C@H](Cc1ccccc1)NC(=O)[C@H](Cc1c[nH]cn1)NC(=O)[C@H](Cc1c[nH]cn1)NC(=O)[C@H](CC(C)C)NC(=O)[C@H](Cc1ccccc1)NC(=O)[C@H](CCC(=O)O)NC(=O)[C@H](C)NC(=O)[C@H](CC(C)C)NC(=O)[C@H](CCCNC(=N)N)NC(=O)[C@H](C)NC(=O)[C@@H](NC(=O)[C@H](CCC(N)=O)NC(=O)[C@H](C)NC(=O)[C@@H](NC(=O)[C@H](CO)NC(=O)[C@H](CC(C)C)NC(=O)[C@H](Cc1c[nH]cn1)NC(=O)[C@H](CO)NC(=O)[C@H](C)NC(=O)CC[C@H](NC(=O)CCCCCCCCCCCCCCCCC(=O)O)C(=O)O)[C@@H](C)O)[C@@H](C)O)C(=O)N[C@@H](CC(C)C)C(=O)N1CCC[C@H]1C(=O)N1CCC[C@H]1C(=O)N[C@H](C(=O)N[C@@H](CC(=O)O)C(=O)N[C@H](C(=O)NCC(=O)N[C@@H](CO)C(=O)N[C@@H](CCC(=O)O)C(=O)N[C@H](C(=O)N[C@@H](Cc1ccc(O)cc1)C(N)=O)[C@@H](C)O)C(C)C)[C@@H](C)O` [Compound 42, N^1-[(4S)-4-carboxy-4-(17-carboxyheptadecanoylamino)butanoyl]-[Ala1,Ser2,His3,Leu4,Ser5,Ala7,Gln8,Ala10,Glu14,His17,Pro25,Pro28,Pro29,Asp31,Glu35],des-(19-22)-human amylin] ({C18 diacid-γGlu}-ASHLSTAQTARLAEFLHHFGPILPPTDVGSETY-NH2), for which the figures for the pEC50 in data set [2] and in data set [3] were 11.56 and 11.68, respectively.

On to `CC[C@H](C)[C@H](NC(=O)[C@@H]1CCCN1C(=O)CNC(=O)[C@H](Cc1ccccc1)NC(=O)[C@H](Cc1c[nH]cn1)NC(=O)[C@H](Cc1c[nH]cn1)NC(=O)[C@H](CC(C)C)NC(=O)[C@H](Cc1ccccc1)NC(=O)[C@H](CCC(=O)O)NC(=O)[C@H](C)NC(=O)[C@H](CC(C)C)NC(=O)[C@H](CCCNC(=N)N)NC(=O)[C@H](C)NC(=O)[C@@H](NC(=O)[C@H](CCC(N)=O)NC(=O)[C@H](C)NC(=O)[C@@H](NC(=O)[C@H](CO)NC(=O)[C@H](CC(C)C)NC(=O)[C@H](Cc1c[nH]cn1)NC(=O)[C@H](CO)NC(=O)[C@H](C)NC(=O)CC[C@H](NC(=O)CCCCCCCCCCCCCCCCC(=O)O)C(=O)O)[C@@H](C)O)[C@@H](C)O)C(=O)N[C@@H](CC(C)C)C(=O)N1CCC[C@H]1C(=O)N1CCC[C@H]1C(=O)N[C@H](C(=O)N[C@@H](CC(=O)O)C(=O)N[C@H](C(=O)NCC(=O)N[C@@H](CO)C(=O)N[C@@H](CCC(=O)O)C(=O)N[C@H](C(=O)N1CCC[C@H]1C(N)=O)[C@@H](C)O)C(C)C)[C@@H](C)O` [Compound 43, N^1-[(4S)-4-carboxy-4-(17-carboxyheptadecanoylamino)butanoyl]-[Ala1,Ser2,His3,Leu4,Ser5,Ala7,Gln8,Ala10,Glu14,His17,Pro25,Pro28,Pro29,Asp31,Glu35,Pro37],des-(19-22)-human amylin] ({C18 diacid-γGlu}-ASHLSTAQTARLAEFLHHFGPILPPTDVGSETP-NH2), for which the pEC50 in data set [2] is 11.75; in data set [3], 11.97.

Regarding `CC[C@H](C)[C@H](NC(=O)[C@@H]1CCCN1C(=O)CNC(=O)[C@H](Cc1ccccc1)NC(=O)[C@H](CC(N)=O)NC(=O)[C@H](CC(N)=O)NC(=O)[C@H](CO)NC(=O)[C@H](CO)NC(=O)[C@H](Cc1c[nH]cn1)NC(=O)[C@H](CCCNC(=N)N)NC(=O)[C@H](CC(C)C)NC(=O)[C@H](Cc1ccccc1)NC(=O)[C@H](CCC(=O)O)NC(=O)[C@H](C)NC(=O)[C@H](CC(C)C)NC(=O)[C@H](CCCNC(=N)N)NC(=O)[C@H](CCC(N)=O)NC(=O)[C@@H](NC(=O)[C@H](C)NC(=O)[C@@H]1CSSC[C@H](NC(=O)[C@H](CCCCN)NC(=O)CC[C@H](NC(=O)CCCCCCCCCCCCCCCCCCC(=O)O)C(=O)O)C(=O)N[C@@H](CC(N)=O)C(=O)N[C@@H]([C@@H](C)O)C(=O)N[C@@H](C)C(=O)N[C@@H]([C@@H](C)O)C(=O)N1)[C@@H](C)O)C(=O)N[C@@H](CC(C)C)C(=O)N1CCC[C@H]1C(=O)N1CCC[C@H]1C(=O)N[C@H](C(=O)N[C@@H](CC(N)=O)C(=O)N[C@H](C(=O)NCC(=O)N[C@@H](CO)C(=O)N[C@@H](CC(N)=O)C(=O)N[C@H](C(=O)N1CCC[C@H]1C(N)=O)[C@@H](C)O)C(C)C)[C@@H](C)O` [cagrilintide, reference compound], the values for the negative-log EC50 (pEC50) in data set [2] and in data set [3] were 11.60 and 11.80, respectively.
